Measured values from patent US20090326014A1, “Use of 5-ht7 receptor agonists for the treatment of pain” (Laboratorios Del Dr. Esteve, S.A., priority 2006, published 2009).

Tests used:
5-HT7 receptors = 5-HT7 receptors (Homo sapiens, UniProt P34969); conditions: Mahe et al., 2004; Romero et al., 2006; cited from earlier work
[1] = system: thermal hyperalgesia induced by partial sciatic nerve ligation; test: Partial sciatic nerve ligation, plantar test (thermal hyperalgesia)
Protocol: Animals were housed in groups of five, provided with food and water ad libitum and kept in controlled laboratory conditions with the temperature maintained at 21±1° C. and light in 12 h cycles (on at 07:00 h and off at 19:00 h). Experiments were carried out in a soundproof and air-regulated experimental room.
The rest of compounds were prepared as aqueous solutions. Doses were calculated based on the molecular weight of the free base. All the compounds and vehicles (1% DMSO or physiological saline) were administered in a volume of 5 ml/kg through the subcutaneous (s.c.) route. When two compounds were co-administered, they were injected s.c. in opposite flanks of the mice.
This model consists of partial injury to the sciatic nerve at mid-thigh level. All surgical procedures for nerve injury were performed under isoflurane (IsoFlo®, Abbott-Laboratorios Dr. Esteve, S. A., Barcelona, Spain) anesthesia (induction: 3%; surgery: 2%). Briefly, mice were anaesthetized and the common sciatic nerve was exposed at the level of the mid-thigh of the right hind paw. Partial nerve injury was produced at about 1 cm proximal to the nerve trifurcation by tying a tight ligature around approximately 33 to 50% the diameter of the sciatic nerve using 9-0 non-absorbable virgin silk suture (Alcon surgical, Texas, USA). Ligature enclosed the outer ⅓-½ sciatic nerve whereas the rest of the nerve (inner ⅔-½) was leaved “uninjured”. The muscle was then stitched with 6-0 silk suture and the skin incision was closed with wound clips. Control, sham-operated mice underwent the same surgical procedure and the sciatic nerve was exposed, but not ligated. After surgery, animals were allowed to recover for 5 days prior to initiation of nociceptive behavioral tests (see experimental protocol below).
The effectiveness of acute treatments with 5-HT7 ligands compared to vehicle on the expression of neuropathic pain was investigated based on the following experimental protocol. […] After the habituation period, pre-injury baseline responses in each test were established during 2 consecutive days. One day after baseline measurements, nerve injury or sham operation was induced as previously described. Mice were then tested in either the von Frey or the plantar test on day 5 after the surgical procedure to monitor post-injury responses. Post-injury baseline responses of mice treated with vehicle were obtained on day 10 (basal pre-treatment). On days 11-13 mice received treatment with three different doses of 5-HT7 ligands following a Latin square design. Finally, on day 14 after surgery, baseline responses in vehicle-treated mice (basal post-treatment) were evaluated as an internal control to ensure that mechanical allodynia and thermal hyperalgesia were not influenced by previous treatments in the Latin square design.

h5-HT6 = h5-HT6 (Homo sapiens, UniProt P50406); test: Radioligand binding assay, h5-HT6; conditions: h5-HT6; read-out: Affinity [ki (nM)]
Sequence of h5-HT6 (P50406 whole entry): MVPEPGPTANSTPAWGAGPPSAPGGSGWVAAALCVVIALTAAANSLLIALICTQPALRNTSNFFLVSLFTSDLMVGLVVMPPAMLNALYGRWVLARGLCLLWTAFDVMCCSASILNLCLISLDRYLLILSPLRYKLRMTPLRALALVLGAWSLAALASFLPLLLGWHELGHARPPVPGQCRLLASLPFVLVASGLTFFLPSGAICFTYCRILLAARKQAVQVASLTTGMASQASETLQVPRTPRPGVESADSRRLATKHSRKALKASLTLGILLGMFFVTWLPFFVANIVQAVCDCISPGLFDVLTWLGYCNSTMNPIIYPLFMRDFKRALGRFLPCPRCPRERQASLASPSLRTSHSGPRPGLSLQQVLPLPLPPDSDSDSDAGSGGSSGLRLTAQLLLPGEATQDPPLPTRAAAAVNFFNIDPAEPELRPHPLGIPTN

[2] = system: capsaicin-induced mechanical allodynia; test: Capsaicin test, proallodynic protocol (4 ng capsaicin, 0.25 g von Frey filament); assay type: in vivo, mice; conditions: 0.25 g pressure
Protocol: Alternatively, in some experiments, only 4 ng (instead of 1 μg) of capsaicin were injected into the paw and the pressure exerted by the filament was reduced to 0.25 g (instead of 1 g). […] This approach was used to test the possibility that treatments could exert a proallodynic effect. The FIG. 1 summarizes the two different experimental approaches carried out in this study.

h5-HT1D = h5-HT1D (Homo sapiens, UniProt P28221); test: Radioligand binding assay, h5-HT1D; conditions: read-out: Affinity [ki (nM)]
Sequence of h5-HT1D (P28221 whole entry): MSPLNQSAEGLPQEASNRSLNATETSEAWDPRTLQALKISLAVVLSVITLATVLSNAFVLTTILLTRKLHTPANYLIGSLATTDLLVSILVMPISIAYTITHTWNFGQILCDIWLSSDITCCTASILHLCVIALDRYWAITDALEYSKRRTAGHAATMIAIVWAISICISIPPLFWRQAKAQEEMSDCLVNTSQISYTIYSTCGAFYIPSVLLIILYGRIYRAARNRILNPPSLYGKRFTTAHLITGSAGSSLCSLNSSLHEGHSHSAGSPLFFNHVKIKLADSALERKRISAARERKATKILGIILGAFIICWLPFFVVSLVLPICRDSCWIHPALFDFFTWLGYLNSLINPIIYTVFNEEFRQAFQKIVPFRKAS

h5-HT2A = h5-HT2A (Homo sapiens, UniProt P28223); test: Radioligand binding assay, h5-HT2A; conditions: read-out: Affinity [ki (nM)]
Sequence of h5-HT2A (P28223 whole entry): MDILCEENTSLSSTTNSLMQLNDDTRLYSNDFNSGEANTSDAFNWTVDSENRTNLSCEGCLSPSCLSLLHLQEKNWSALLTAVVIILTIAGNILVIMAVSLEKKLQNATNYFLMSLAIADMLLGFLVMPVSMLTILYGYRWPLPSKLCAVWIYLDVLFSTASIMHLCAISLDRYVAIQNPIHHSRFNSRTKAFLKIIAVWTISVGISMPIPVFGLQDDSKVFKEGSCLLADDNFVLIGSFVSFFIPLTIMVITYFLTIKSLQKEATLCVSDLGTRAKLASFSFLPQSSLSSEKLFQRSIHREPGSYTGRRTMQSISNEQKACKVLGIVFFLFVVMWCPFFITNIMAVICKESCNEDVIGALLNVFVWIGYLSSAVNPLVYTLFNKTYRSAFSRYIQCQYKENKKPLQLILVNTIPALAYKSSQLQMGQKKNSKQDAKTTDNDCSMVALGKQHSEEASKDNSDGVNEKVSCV

h5-HT1A = target: T1, h5-HT1A (Homo sapiens, UniProt P08908); test: Radioligand binding assay, h5-HT1A; conditions: h5-HT1A; read-out: Affinity [ki (nM)]
T1 sequence (P08908 1-422): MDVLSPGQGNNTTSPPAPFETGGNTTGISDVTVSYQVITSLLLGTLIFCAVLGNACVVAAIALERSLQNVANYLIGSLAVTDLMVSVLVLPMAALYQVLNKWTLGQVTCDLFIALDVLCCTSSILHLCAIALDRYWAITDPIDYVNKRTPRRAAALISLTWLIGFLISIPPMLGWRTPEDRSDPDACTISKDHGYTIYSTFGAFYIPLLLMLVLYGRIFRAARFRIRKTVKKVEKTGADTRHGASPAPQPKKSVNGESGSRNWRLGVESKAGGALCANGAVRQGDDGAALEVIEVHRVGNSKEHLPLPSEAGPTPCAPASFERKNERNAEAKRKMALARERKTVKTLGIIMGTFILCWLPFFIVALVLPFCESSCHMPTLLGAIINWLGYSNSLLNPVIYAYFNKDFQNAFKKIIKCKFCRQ

[3] = system: capsaicin-induced mechanical allodynia; test: Capsaicin test, antiallodynic protocol (1 μg capsaicin, 1 g von Frey filament); conditions: for effect on capsaicin-induced mechanical allodynia: 1 g filament
Protocol: Animals were housed in groups of five, provided with food and water ad libitum and kept in controlled laboratory conditions with the temperature maintained at 21±1° C. and light in 12 h cycles (on at 07:00 h and off at 19:00 h). Experiments were carried out in a soundproof and air-regulated experimental room. The number of mice per group in each individual experiment was 16.
Capsaicin (8-methyl-N-vanillyl 6-nonamide) was dissolved in 1% DMSO (vehicle). […] Doses were calculated based on the molecular weight of the free base. All the compounds and vehicles (1% DMSO or physiological saline) were administered in a volume of 5 ml/kg through the subcutaneous (s.c.) route. When two compounds were co-administered, they were injected s.c. in opposite flanks of the mice.
Subplantar capsaicin injection initially evokes a nocifensive behavior that is characterized by lifting and guarding the injected paw and typically lasts up to 5 min following injection. […] In this study, sensitization by subplantar capsaicin injection was used to assess the effect of several 5-HT7 ligands on mechanical allodynia.
Drug treatments with 5-HT7 ligands were done 30 min before capsaicin injection and withdrawal latencies to a mechanical stimulus were determined 15 min after capsaicin injection (FIG. 1).
Mechanical allodynia was quantified by measuring the hind paw withdrawal response latency to von Frey filament stimulation. Mice were placed into compartment enclosures in a test chamber with a framed metal mesh floor and allowed to acclimate to their environment for 120 min before testing. […] The mechanical stimulus was applied to the plantar surface of the right, capsaicin-injected hind paw from below the mesh floor by using an automated testing device (dynamic plantar aesthesiometer; Ugo Basile, Italy) that lifts a straight filament (0.5 mm diameter). The filament exerted a fixed upward pressure (1 g or 0.25 g) on the plantar surface. When the animal withdrew its hind paw, the mechanical stimulus automatically stopped and the latency time was recorded. Latency was defined as the time from the onset of exposure to the filament to the cessation of the pressure when the sensor detected the withdrawal of the paw. A cut-off latency of 60 sec was imposed. Paw withdrawal latencies were measured in triplicate for each animal.
This approach enabled us to evaluate the possible antiallodynic effect of 5-HT7 ligands.
Data are presented as mean paw withdrawal latency responses in sec±S.E.M. Capsaicin-injected hind paw withdrawal responses to mechanical stimulation of treated mice were compared with those of untreated (vehicle-treated) mice. Statistical analysis to test intergroup comparisons was made using an initial one-way analysis of variance followed by the Newman-Keuls multiple comparison test. The level of significance was set at p<0.05.

h5-HT2B = h5-HT2B (Homo sapiens, UniProt P41595); test: Radioligand binding assay, h5-HT2B; conditions: h5-HT2B; read-out: Affinity [ki (nM)]
Sequence of h5-HT2B (P41595 whole entry): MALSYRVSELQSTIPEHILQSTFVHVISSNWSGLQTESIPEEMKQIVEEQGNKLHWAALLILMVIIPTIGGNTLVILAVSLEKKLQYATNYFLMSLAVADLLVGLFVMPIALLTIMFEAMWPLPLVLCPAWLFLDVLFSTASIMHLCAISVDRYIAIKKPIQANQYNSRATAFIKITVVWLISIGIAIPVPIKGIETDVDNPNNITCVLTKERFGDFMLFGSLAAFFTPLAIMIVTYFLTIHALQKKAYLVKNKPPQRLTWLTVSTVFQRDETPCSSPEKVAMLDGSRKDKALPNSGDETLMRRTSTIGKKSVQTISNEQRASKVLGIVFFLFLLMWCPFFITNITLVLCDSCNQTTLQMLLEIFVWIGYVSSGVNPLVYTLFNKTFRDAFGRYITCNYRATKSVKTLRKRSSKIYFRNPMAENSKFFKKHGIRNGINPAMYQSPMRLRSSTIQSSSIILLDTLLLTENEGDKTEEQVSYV

h5-HT1B = h5-HT1B (Homo sapiens, UniProt P28222); test: Radioligand binding assay, h5-HT1B; conditions: read-out: Affinity [ki (nM)]
Sequence of h5-HT1B (P28222 whole entry): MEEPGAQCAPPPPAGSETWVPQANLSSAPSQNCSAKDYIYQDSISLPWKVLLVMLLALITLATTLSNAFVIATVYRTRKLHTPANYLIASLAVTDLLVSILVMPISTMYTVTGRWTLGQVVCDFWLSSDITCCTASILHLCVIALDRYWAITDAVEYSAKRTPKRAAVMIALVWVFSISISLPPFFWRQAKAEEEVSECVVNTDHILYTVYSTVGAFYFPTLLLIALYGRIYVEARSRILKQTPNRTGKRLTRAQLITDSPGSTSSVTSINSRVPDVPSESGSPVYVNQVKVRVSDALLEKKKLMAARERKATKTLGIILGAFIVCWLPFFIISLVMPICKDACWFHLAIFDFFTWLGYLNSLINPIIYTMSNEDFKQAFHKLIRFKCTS

h5-HT1E = h5-HT1E (Homo sapiens, UniProt P28566); test: Radioligand binding assay, h5-HT1E; conditions: read-out: Affinity [ki (nM)]
Sequence of h5-HT1E (P28566 whole entry): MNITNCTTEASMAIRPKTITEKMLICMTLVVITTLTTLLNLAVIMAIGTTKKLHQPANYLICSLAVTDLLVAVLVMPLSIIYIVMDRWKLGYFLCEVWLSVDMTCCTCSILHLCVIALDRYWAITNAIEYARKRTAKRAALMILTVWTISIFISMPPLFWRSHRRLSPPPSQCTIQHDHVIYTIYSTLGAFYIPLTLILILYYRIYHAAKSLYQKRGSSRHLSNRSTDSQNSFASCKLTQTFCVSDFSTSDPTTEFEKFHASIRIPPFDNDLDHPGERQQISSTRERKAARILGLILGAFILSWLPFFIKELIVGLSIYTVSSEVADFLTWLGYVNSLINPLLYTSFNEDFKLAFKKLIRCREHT

h5-HT7 = h5-HT7 (Homo sapiens, UniProt P34969); conditions: read-out: Affinity [ki (nM)]
Sequence of h5-HT7 (P34969 whole entry): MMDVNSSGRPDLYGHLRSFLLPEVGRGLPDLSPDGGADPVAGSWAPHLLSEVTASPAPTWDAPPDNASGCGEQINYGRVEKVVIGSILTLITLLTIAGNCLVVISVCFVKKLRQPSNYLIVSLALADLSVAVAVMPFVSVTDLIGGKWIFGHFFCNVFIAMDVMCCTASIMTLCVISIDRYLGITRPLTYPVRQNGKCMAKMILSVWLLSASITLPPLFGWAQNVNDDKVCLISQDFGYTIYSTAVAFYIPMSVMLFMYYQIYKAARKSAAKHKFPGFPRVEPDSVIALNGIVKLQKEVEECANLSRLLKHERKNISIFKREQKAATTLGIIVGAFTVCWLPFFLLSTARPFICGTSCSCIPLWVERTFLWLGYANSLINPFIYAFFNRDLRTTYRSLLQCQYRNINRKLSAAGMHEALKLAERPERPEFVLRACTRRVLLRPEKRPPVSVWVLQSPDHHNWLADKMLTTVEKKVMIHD

h5-HT1F = target: T2, h5-HT1F (Homo sapiens, UniProt P30939); test: Radioligand binding assay, h5-HT1F; conditions: read-out: Affinity [ki (nM)]
T2 sequence (P30939 1-366): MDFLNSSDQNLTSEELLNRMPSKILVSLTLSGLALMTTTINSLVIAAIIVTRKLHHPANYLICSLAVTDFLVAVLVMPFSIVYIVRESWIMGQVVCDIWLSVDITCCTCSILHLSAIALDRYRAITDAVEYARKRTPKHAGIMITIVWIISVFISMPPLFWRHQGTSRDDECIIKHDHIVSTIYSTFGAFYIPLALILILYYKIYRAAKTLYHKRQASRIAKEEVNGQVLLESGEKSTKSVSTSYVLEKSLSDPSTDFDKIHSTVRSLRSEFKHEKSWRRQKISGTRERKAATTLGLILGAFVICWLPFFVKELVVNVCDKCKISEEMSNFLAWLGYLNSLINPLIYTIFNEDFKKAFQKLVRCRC

[4] = system: mechanical allodynia induced by partial sciatic nerve ligation; test: Partial sciatic nerve ligation, von Frey test (mechanical allodynia); assay type: in vivo, mice
From the text: Mechanical allodynia was quantified by measuring the tactile threshold for hind paw withdrawal following von Frey filament stimulation. […] The filament exerted an increasing upward pressure on the plantar surface. The pressure increased linearly with time (0.1 g/s; from 0 to 5 g in 50 s) until the mouse withdrew its paw. […] A cut-off threshold of 5 g (50 s) was imposed.
The filament of 0.4 g was first used. […] This up-down procedure was stopped four measures after the first change in animal responding and the threshold of response was calculated. Clear paw withdrawal, shaking was considered as a nociceptive-like response.

[5] = system: sciatic nerve-ligatured rats; test: Chronic constriction injury of the sciatic nerve (CCI-SN), Randall-Sellito test; conditions: antagonist i.p., 5a-MSD s.c.; sciatic nerve-ligated rats
Protocol: All compounds were prepared as aqueous solutions. […] When two compounds were co-administered, one was injected s.c. and the other i.p.
Briefly, the right common sciatic nerve was exposed at mid-tight level by blunt dissection through the biceps femoris muscle. Proximal to the trifurcation, ≈10 mm of nerve was freed from adhering tissue and four loose ligatures (5.0 chromic catgut) were tied around the sciatic nerve (≈1 mm apart). […] In sham-operated control rats, an identical dissection was performed on the right side allowing the sciatic nerve to be freed from surrounding tissue, but not ligatured. Finally, muscle and skin were closed in layers with silk thread.
Mechanical nociceptive thresholds, expressed as grams (g), were measured using the Randall-Sellito test (Ugo Basile analgesimeter; Bioseb, Chaville, France). An increasing pressure was applied to the nerve-injured hindpaw of unrestrained rats until paw withdrawal (PW) and then a squeak (i.e. the vocalization threshold when the paw was held under pressure) were obtained. As PW is a spinally coordinated reflex whereas vocalization is a supra-spinal integrated response (Kayser and Christensen, 2000), this test allowed assessment of the respective contribution of spinal versus supra-spinal mechanisms.

h5-HT2C = h5-HT2C (Homo sapiens, UniProt P28335); test: Radioligand binding assay, h5-HT2C; conditions: h5-HT2C; read-out: Affinity [ki (nM)]
Sequence of h5-HT2C (P28335 33-458): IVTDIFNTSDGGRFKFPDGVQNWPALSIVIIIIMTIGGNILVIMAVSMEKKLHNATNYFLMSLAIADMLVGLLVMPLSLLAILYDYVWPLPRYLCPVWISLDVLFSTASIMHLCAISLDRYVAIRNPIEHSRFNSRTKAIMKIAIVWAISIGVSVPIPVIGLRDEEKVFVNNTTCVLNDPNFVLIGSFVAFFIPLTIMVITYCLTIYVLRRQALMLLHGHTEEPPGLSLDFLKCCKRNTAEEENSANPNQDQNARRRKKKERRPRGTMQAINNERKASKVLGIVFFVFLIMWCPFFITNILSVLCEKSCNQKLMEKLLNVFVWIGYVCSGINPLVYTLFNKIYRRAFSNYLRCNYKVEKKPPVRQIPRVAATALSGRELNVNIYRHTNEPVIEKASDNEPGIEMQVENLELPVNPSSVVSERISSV

Sequence of 5-HT7 receptors (P34969 whole entry): as the sequence (P34969 whole entry) above

## Cc1cccc(S(=O)(=O)N(C)[C@H](C)CCN2CCC(C)CC2)c1 [SB-258719, (R)-3,N-Dimethyl-N-(1-methyl-3-(4-methylpiperidin-1-yl)propyl)benzene sulfonamide]
5-HT7 receptors
  functionality at 5-HT7 receptor as described: pure antagonist
[1]; 0.1-10 mg/kg s.c.
  effect on thermal hyperalgesia (paw withdrawal latency): did not exert any effects
[1]; SB-258719 5 mg/Kg + AS-19 5 mg/kg s.c., nerve-injured mice
  effect on the antihyperalgesic effect of AS-19 when co-administered: blocked significantely the antihyperalgesic effects
[1]; SB-258719 5 mg/Kg + MSD-5a 10 mg/kg s.c., nerve-injured mice
  effect on the antihyperalgesic effect of MSD-5a when co-administered: had a tendency to revert MSD-5a (10 mg/kg) without significancy
h5-HT6
  Ki: > 1000 nM
[2]; 10 mg/Kg s.c.
  proallodynic effect (paw withdrawal latency): allodynia was evidenced
[2]; s.c.
  proallodynic effect, dose-response: dose-dependently promoted allodynia
h5-HT1D
  Ki: > 1000 nM
h5-HT2A
  Ki: > 1000 nM
h5-HT1A
  Ki: > 1000 nM
[3]; 20 mg/kg s.c.
  effect on capsaicin-induced mechanical allodynia: significantly increased paw withdrawal latencies
[3]; 2.5, 5 and 10 mg/kg s.c.
  effect on capsaicin-induced mechanical allodynia: unaffected
[3]; AS-19 at 5 and 10 mg/kg, WAY-100635 0.3 mg/kg or SB-258719 5 mg/kg s.c.
  effect on the antiallodynic effect of AS-19 when co-administered: abolished
[3]; SB-258719 5 mg/kg + MSD-5a 10 mg/kg s.c.
  effect on the antiallodynic effect of MSD-5a when co-administered: blocked this antiallodynic effect
[3]; SB-258719 2.5 and 5 mg/kg + AS-19 5 mg/kg s.c.
  effect on the antiallodynic effect of AS-19 when co-administered: dose-dependently inhibited
h5-HT2B
  Ki: > 1000 nM
h5-HT1B
  Ki: > 1000 nM
h5-HT1E
  Ki: > 1000 nM
h5-HT7
  Ki: 31.6 nM
h5-HT1F
  Ki: > 1000 nM
[4]; 5 mg/Kg s.c., day 11, single dose design
  effect alone on mechanical allodynia, nerve-injured mice: had no antiallodynic effect
[4]; 10 mg/kg s.c., nerve-injured mice
  effect on mechanical threshold of the nerve-injured hind paw (proallodynic): significantly decreased the mechanical threshold
[4]; SB-258719 5 mg/Kg, AS-19 5 mg/kg, MSD-5a 10 mg/kg s.c., nerve-injured mice
  effect on the antiallodynic effect of AS-19 and MSD-5a when co-administered: able to reverse the antiallodynic effect
[4]; sham-operated, 10 mg/kg s.c.
  induction of mechanical allodynia in sham-operated mice: able to induce mechanical allodynia
[5]
  effect on 5a-MSD-induced anti-hyperalgesia/anti-allodynia: Blockade
h5-HT2C
  Ki: > 1000 nM
